According to ChEMBL document CHEMBL1149968, “Synthesis and in vitro cytotoxicity of cis-dichloro[(2S,3R,4S)-2-aminomethyl-3,4-(O-isopropylidene)dihydroxy- or -3,4-dihydroxypyrrolidine]platinum(II)” (Bioorg Med Chem Lett, 1996):

How the values were obtained:
[1] = Relative resistance calculated as the ratio of IC50 of resistant sublime to that of IC50 of parent cell line.; assay type: functional
A549 = assay: In vitro cytotoxicity against lung cancer A 549 cell lines; assay type: functional, cell-based, Homo sapiens
L1210 [2] = assay: In vitro cytotoxicity against Cisplatin resistant L1210/CPR leukemia cell lines.; assay type: functional, cell-based, Mus musculus
L1210 [3] = assay: In vitro cytotoxicity against Cisplatin sensitive L1210/parent leukemia cell lines.; assay type: functional, cell-based, Mus musculus
SK-OV-3 = assay: In vitro cytotoxicity against ovarian cancer SK-OV-3 cell lines; assay type: functional, cell-based, Homo sapiens
XF498 = assay: In vitro cytotoxicity against CNS cancer XF 498 cell lines; assay type: functional, cell-based, Homo sapiens

CISPLATIN [listing 1 of 2 here]
Relative resistance [1]: 34

cis-Dichloro[(2S,3R,4S)-2-aminomethyl-3,4-(O-isopropylidene)dihydrxypyrrolidine]platinum (II) [listing 1 of 2 here]
IC50 (A549): 10.9 µM
IC50 (L1210 [2]): 1.6 µM
IC50 (L1210 [3]): 0.3 µM
IC50 (SK-OV-3): 7.8 µM
IC50 (XF498): 6.2 µM

CARBOPLATIN [listing 1 of 2 here]
IC50 (A549): 37.7 µM
IC50 (L1210 [2]): 45.3 µM
IC50 (L1210 [3]): 2 µM
IC50 (SK-OV-3): 13.9 µM
IC50 (XF498): 13.6 µM

cis-Dichloro[(2S,3R,4S)-2-aminomethyl-3,4-dihydroxypyrrolidine]platinum (II) [listing 1 of 2 here]
IC50 (A549): 32.5 µM
IC50 (L1210 [2]): 10.9 µM
IC50 (L1210 [3]): 1.4 µM
IC50 (SK-OV-3): 15.4 µM
IC50 (XF498): 14.8 µM

CARBOPLATIN [listing 2 of 2 here]
Relative resistance [1]: 22.7

cis-Dichloro[(2S,3R,4S)-2-aminomethyl-3,4-(O-isopropylidene)dihydrxypyrrolidine]platinum (II) [listing 2 of 2 here]
Relative resistance [1]: 5.3

cis-Dichloro[(2S,3R,4S)-2-aminomethyl-3,4-dihydroxypyrrolidine]platinum (II) [listing 2 of 2 here]
Relative resistance [1]: 7.8

CISPLATIN [listing 2 of 2 here]
IC50 (A549): 3.2 µM
IC50 (L1210 [2]): 3.4 µM
IC50 (XF498): 2.9 µM
